# Reference: US20040185430A1, “Process for evaluating the cosmetic or dermatological activity of a product and use of plant material” (priority 2002, published 2004)
# Tests used:
# Spatyphillum [1] = experiment: Moisturizing effect, CM820 corneometer, Spatyphillum leaves; settings: Spatyphillum leaf; 4 mg/cm2 topical; T 2 hours vs T0, corrected for control
# Protocol: (§1) Measurements were carried out at approximately 22° C. and a relative humidity ranging from 53% to 67%. Plants: 2 samples per product, measured at intervals of 24 hours. Application of the formulations over the whole of the vernicose (upper) surface. One leaf per formulation+one control leaf. […] Application of the formulations at the rate of 4 mg/cm^2 (search for the direction of the action and not for the performance of the product). Moisturizing—Measurement with a CM820 corneometer of the mean value of 5 determinations. Measurements at: T0: reference value before application of the formulations. T 2 hours for the active principles (single measurement after observation of appearance of cuts on the leaves brought about by the measuring pressure of the corneometer). T 1 hour and T 4 hours for the commercial formulations. The values are the mean of the measurements at Ti divided by those at TO corrected for the variations in the control regions.
# Man [2] = experiment: Barrier effect, insensible water loss (IWL), Dermalab, human model (inner forearm); assay type: in vivo; settings: 4 mg/cm2 topical, T 2 hours vs T0, corrected for control region
# Protocol: 2) To measure the moisturizing and the barrier effects, the human models (2 male volunteers and 2 female volunteers) took part in the tests and measurements under environmental conditions which were also controlled. Measurements were carried out at approximately 22° C. and a relative humidity ranging from 53% to 67%. Human beings: 4 models per product. Application to an inner region of the arm. Three regions of measurements, including a control, on the inner part of each forearm were conducted. The models were kept calm under climate-controlled measuring conditions for 15 minutes before each series of measurements. Application of each formulation over an area of 16 cm^2. Application of the formulations at the rate of 4 mg/cm^2 (search for the direction of the action and not for the performance of the product). The plant and human models and the products tested were the same as in Example 1. The IWL (insensible water loss) measurements were carried out according to the same protocol as above. IWL: Measurement with a Dermalab (vertical probe in contact with the measurement region, under minimum pressure). For the plants, a glass sheet was placed under the measurement region. 2 series of consecutive measurements of 25 values were conducted. The values are the mean of the measurements at Ti divided by those at T0 corrected for the variations in the control regions.
# Potato, BF15 [3] = experiment: Moisturizing effect, CM820 corneometer, potato model; settings: 4 mg/cm2 topical, T 2 hours vs T0, corrected for control region
# Protocol: (§2) Measurements were carried out at approximately 22° C. and a relative humidity ranging from 53% to 67%. Fruits and vegetables: 2 samples per product, measured at intervals of 24 hours. Application to regions of 4 cm^2. A control region on each sample. Application of the formulations at the rate of 4 mg/cm^2 (search for the direction of the action and not for the performance of the product). Moisturizing—Measurement with a CM820 corneometer of the mean value of 5 determinations. Measurements at: T0: reference value before application of the formulations. T 2 hours for the active principles (single measurement after observation of appearance of cuts on the leaves brought about by the measuring pressure of the corneometer). T 1 hour and T 4 hours for the commercial formulations. The values are the mean of the measurements at Ti divided by those at TO corrected for the variations in the control regions.
# Potato, BF15 [4] = experiment: Barrier effect, insensible water loss (IWL), Dermalab, potato model; settings: 4 mg/cm2 topical, T 2 hours vs T0, corrected for control region
# Protocol: (§3) Measurements were carried out at approximately 22° C. and a relative humidity ranging from 53% to 67%. Fruits and vegetables: 2 samples per product, measured at intervals of 24 hours. Application to regions of 4 cm^2. A control region on each sample. Application of the formulations at the rate of 4 mg/cm^2 (search for the direction of the action and not for the performance of the product). The plant and human models and the products tested were the same as in Example 1. The IWL (insensible water loss) measurements were carried out according to the same protocol as above. IWL: Measurement with a Dermalab (vertical probe in contact with the measurement region, under minimum pressure). For the plants, a glass sheet was placed under the measurement region. 2 series of consecutive measurements of 25 values were conducted. The values are the mean of the measurements at Ti divided by those at T0 corrected for the variations in the control regions.
# Apples, Golden Delicious [5] = experiment: Barrier effect, insensible water loss (IWL), Dermalab, apple model; settings: 4 mg/cm2 topical, T 2 hours vs T0, corrected for control region
# Protocol: as §3
# Spatyphillum [6] = experiment: Barrier effect, insensible water loss (IWL), Dermalab, Spatyphillum leaves; settings: Spatyphillum leaf; 4 mg/cm2 topical; T 2 hours vs T0, corrected for control
# Protocol: as §3, with “Plants:” for “Fruits and vegetables:”, “Application” for “Application to regions”, “the formulations over the whole of the vernicose (upper) surface. One leaf per formulation+one” for “4 cm^2. A”, “leaf. […]” for “region on each sample.”
# Man [7] = experiment: Moisturizing effect, CM820 corneometer, human model (inner forearm); assay type: in vivo; settings: 4 mg/cm2 topical, T 2 hours vs T0, corrected for control region
# Protocol: 2) To measure the moisturizing and the barrier effects, the human models (2 male volunteers and 2 female volunteers) took part in the tests and measurements under environmental conditions which were also controlled. Measurements were carried out at approximately 22° C. and a relative humidity ranging from 53% to 67%. Human beings: 4 models per product. Application to an inner region of the arm. Three regions of measurements, including a control, on the inner part of each forearm were conducted. The models were kept calm under climate-controlled measuring conditions for 15 minutes before each series of measurements. Application of each formulation over an area of 16 cm^2. Application of the formulations at the rate of 4 mg/cm^2 (search for the direction of the action and not for the performance of the product). Moisturizing—Measurement with a CM820 corneometer of the mean value of 5 determinations. Measurements at: T0: reference value before application of the formulations. T 2 hours for the active principles (single measurement after observation of appearance of cuts on the leaves brought about by the measuring pressure of the corneometer). T 1 hour and T 4 hours for the commercial formulations. The values are the mean of the measurements at Ti divided by those at TO corrected for the variations in the control regions.
# Carrot [8] = experiment: Moisturizing effect, CM820 corneometer, carrot model; settings: 4 mg/cm2 topical, T 2 hours vs T0, corrected for control region
# Protocol: as §2
# Apples, Golden Delicious [9] = experiment: Moisturizing effect, CM820 corneometer, apple model; settings: 4 mg/cm2 topical, T 2 hours vs T0, corrected for control region
# Protocol: as §2
# Ficus [10] = experiment: Moisturizing effect, CM820 corneometer, Ficus leaves; settings: Ficus leaf; 4 mg/cm2 topical; T 2 hours vs T0, corrected for control
# Protocol: as §1
# Syngonium [11] = experiment: Moisturizing effect, CM820 corneometer, Syngonium leaves; settings: Syngonium leaf; 4 mg/cm2 topical; T 2 hours vs T0, corrected for control
# Protocol: as §1
# Carrot [12] = experiment: Barrier effect, insensible water loss (IWL), Dermalab, carrot model; settings: 4 mg/cm2 topical, T 2 hours vs T0, corrected for control region
# Protocol: as §3
# Syngonium [13] = experiment: Barrier effect, insensible water loss (IWL), Dermalab, Syngonium leaves; settings: Syngonium leaf; 4 mg/cm2 topical; T 2 hours vs T0, corrected for control
# Protocol: as §3, with “Plants:” for “Fruits and vegetables:”, “Application” for “Application to regions”, “the formulations over the whole of the vernicose (upper) surface. One leaf per formulation+one” for “4 cm^2. A”, “leaf. […]” for “region on each sample.”
# Ficus [14] = experiment: Barrier effect, insensible water loss (IWL), Dermalab, Ficus leaves; settings: Ficus leaf; 4 mg/cm2 topical; T 2 hours vs T0, corrected for control
# Protocol: as §3, with “Plants:” for “Fruits and vegetables:”, “Application” for “Application to regions”, “the formulations over the whole of the vernicose (upper) surface. One leaf per formulation+one” for “4 cm^2. A”, “leaf. […]” for “region on each sample.”
SMILES,Variation T 2 hours/T0 Corneo (Spatyphillum [1]) [%],Variation T 2 hours/T0 IWL (Man [2]) [%],"Variation T 2 hours/T0 Corneo (Potato, BF15 [3]) [%]","Variation T 2 hours/T0 IWL (Potato, BF15 [4]) [%]","Variation T 2 hours/T0 IWL (Apples, Golden Delicious [5]) [%]",Variation T 2 hours/T0 IWL (Spatyphillum [6]) [%],Variation T 2 hours/T0 Corneo (Man [7]) [%],Variation T 2 hours/T0 Corneo (Carrot [8]) [%],"Variation T 2 hours/T0 Corneo (Apples, Golden Delicious [9]) [%]",Variation T 2 hours/T0 Corneo (Ficus [10]) [%],Variation T 2 hours/T0 Corneo (Syngonium [11]) [%],Variation T 2 hours/T0 IWL (Carrot [12]) [%],Variation T 2 hours/T0 IWL (Syngonium [13]) [%],Variation T 2 hours/T0 IWL (Ficus [14]) [%]
"CCCCCCCCCCCCOP(=O)(O)O [Surfactant, Lauryl phosphate]",30,19,1144,48,0,13,5,271,2,20,48,2,104,–
OCC(O)CO [Glycerol],52,55,69,188,–,14,22,62,16,47,38,1,40,183
